Experiments:
Assay type in all cases: physicochemical
[1] = Triamcinolone acetonide remaining after storage with aluminum oxide powder (HPLC)
Description: Aluminum oxide powder (Aldrich, neutral, activated Brockmann I, 150 mesh), which mimics aluminum oxide existing on the inner surface of aluminum containers was surface treated by being immersed in a 0.1% w/w solution of A1 in methyl tertiary butyl ether (analytical reagent grade) for 30 minutes while exposed to ultrasonic agitation. The methyl tertiary butyl ether solution was decanted and the powder was allowed to air dry. A triamcinolone stock solution (4 mM) was prepared by adding triamcinolone acetonide to ethanol. Approximately 0.1 g of treated powder was then placed in a vial containing 2 mL of triamcinolone stock solution and stored at 70° C. An extract of the triamcinolone solution was taken after one day of storage and analyzed using high performance liquid chromatography to determine remaining drug content. The amount of drug remaining is reported (in Table 1) as a percentage of the initial amount of drug present and was determined as the average of 3 independent measurements.
Aluminum oxide powder was surface treated and tested as described above with a variety of other organic surface treatment compounds. The type of compound, the amount of triamcinolone acetonide (TA) remaining after 1 day storage, and the percentage of aluminum oxide (AO) powder remaining chemically treated after exposure to drug solution in shown in Table 1.
Approximately 0.1 g of untreated aluminum oxide powder was placed in a vial containing 2 mL of triamcinolone stock solution and stored at 70° C. An extract of the triamcinolone solution was taken after one day of storage and analyzed using high performance liquid chromatography to determine remaining drug content.

[2] = Visual observation of the inside surface of the metering tanks
[3] = Valve deposition measurement
From the text: Metered dose inhalers (MDIs) were fired 122 times to waste. The MDI was shaken for not less than 3 seconds prior to each actuation with a delay of at least 30 seconds between successive actuations. An additional 5 shots were then fired to waste with the MDI in a valve up orientation to clean out the valve. The metering valves were then removed from the MDIs and the outside of the stem cleaned to remove any residual drug adhering to the outer surface. The valve was immersed in diluent (acetonitrile:water 75:25 v/v) and sonicated for approximately 2 hours followed by shaking for at least 30 minutes. An aliquot was removed and analyzed for drug content by conventional HPLC analysis (albuterol sulfate and pirbuterol acetate: 55% 100 mM triethylamine phosphate with 5 mM sodium dodecyl sulfate, pH 2.5/45% methanol v:v, UV detection at 225 nm; flunisolide hemihydrate: 60% water/40% acetonitrile v:v, UV detection at 244 nm). Results are reported as an average of 5 to 8 replicates unless otherwise noted.
Individual valve components (stem, tank, spring, ferrule, and bottle emptier) were initially soaked in isopropanol (analytical reagent grade) for 30 minutes while exposed to ultrasonic agitation. Excess solvent was removed and the components were air dried.
The valve components were then immersed in a 0.1% w/w solution of A1 in methyl tertiary butyl ether (analytical reagent grade) in a sealed flask with a vacuum valve that was placed in a sonicator bath. The flask was sonicated and a vacuum was pulled until air escaped from the small bore in the stems (at least 2 minutes). The vacuum valve was then closed and the sample maintained under vacuum and sonication for an additional 30 minutes. Excess coating solution was then removed and the metering valves were rinsed and sonicated under vacuum in fresh isopropanol (analytical reagent grade) for 15 minutes. Excess rinsing solution was then removed and the metering valves were rinsed and sonicated under vacuum a second time in fresh isopropanol (analytical reagent grade) for 15 minutes. Excess rinsing solution was again removed and the metering valves were dried at 50° C. for at least 12 hours. The components were then assembled to form treated metered dose inhaler metering valves.
[…] Approximately 8.7 g of medicinal formulation was added to an aluminum canister with an internal coating of FEP (tetrafluoroethylene/hexafluoropropylene copolymer). The canister was then sealed by crimping a treated valve onto the canister to form an MDI. The MDIs were stored in a valve down orientation after filling to ensure contact of the formulation with the valve. The amount of albuterol sulfate adsorbed to the valve was 112 (+/−25) μg measured according to the valve deposition method described above.

[4] = Total drug content of canisters filled from stainless steel filling system (HPLC); conditions: 0.0083% w/w suspension in HFA-227a
Description: The vessel was initially soaked in heptane (analytical reagent grade) for 30 minutes while exposed to ultrasonic agitation. The vessel was then rinsed with heptane (analytical reagent grade) for one minute followed by a rinse with isopropanol (analytical reagent grade) and allowed to air dry. The vessel was then immersed in a 0.1% w/w solution of A1 in methyl tertiary butyl ether (analytical reagent grade) for 30 minutes while exposed to ultrasonic agitation. The vessel was then rinsed in methyl tertiary butyl ether (analytical reagent grade) for one minute and allowed to air dry. Additional components of the filling system that contact medicinal formulation during the filling process (solenoid, tubing, stirring paddles, mixing baffles) were treated in the same manner as the vessel.
HFA-227a (600.7 g) was chilled and added to the filling vessel. […] The total drug content (i.e., drug suspended in formulation, as well as drug adhered to the canister) of 6 representative canisters (numbers 9, 11, 13, 14, 16, and 18 in the filling sequence) was analyzed using high performance liquid chromatography. A target total drug content was calculated based on the exact amount of formulation added to each canister and the nominal concentration in the filling vessel. […]

[5] = Drug adsorption to aluminum MDI canister on storage; conditions: 3 days at room temperature
Description: (§1) The internal surface of an aluminum metered dose inhaler canister was treated with compound A1 (n-C4F9—(CH2)11—PO3H2) which may be prepared as described in Example 2 of U.S. Pat. No. 6,824,882, the disclosure of which is hereby incorporated by reference) as follows. The canister was initially soaked in heptane (analytical reagent grade) for 30 minutes while exposed to ultrasonic agitation. The canister was then rinsed with heptane (analytical reagent grade) for one minute followed by a rinse with isopropanol (analytical reagent grade) and allowed to air dry. The canister was then immersed in a 0.1% w/w solution of A1 in methyl tertiary butyl ether (analytical reagent grade) for 30 minutes while exposed to ultrasonic agitation. The canister was then rinsed in methyl tertiary butyl ether (analytical reagent grade) for one minute and allowed to air dry.
Fluticasone propionate was added to HFA-134A propellant to prepare a medicinal formulation with a fluticasone propionate concentration of 0.0083% w/w. Approximately 13 g of medicinal formulation was added to the treated canister which was sealed with an untreated aluminum blind ferrule (i.e., a casing member lacking valve components). The canister was stored in an upright position after filling to prevent contact of the medicinal formulation with the untreated aluminum surface of the blind ferrule. The solution was stored in the canister for 3 days at room temperature. The amount of fluticasone propionate adsorbed to the canister was 2.4% (+/−1.1%) measured according to the method described above.
A canister was prepared and tested as described in Example 1 with the exception that the canister was filled with a 0.0083% w/w formulation of fluticasone propionate in HFA-227. The solution was stored in the canister for 3 days at room temperature. The amount of fluticasone propionate adsorbed to the canister was 9.7% (+/−6.5%) measured according to the method described above.
An untreated aluminum canister was filled with the medicinal formulation of Example 1. The solution was stored in the canister for 3 days at room temperature. The amount of fluticasone propionate adsorbed to the canister was 23.2% (+/−1.5%) measured according to the method described above.
An untreated aluminum canister was filled with the medicinal formulation of Example 2. The solution was stored in the canister for 3 days at room temperature. The amount of fluticasone propionate adsorbed to the canister was 35.5% (+/−1.8%) measured according to the method described above.

[6] = Triamcinolone acetonide remaining after storage in stainless steel canister (HPLC); conditions: 2 mM in ethanol
Description: as §1, with “a stainless steel” for “an aluminum”, “(n-C4F9—(CH2)11—PO3H2)” for “(n-C4F9—(CH2)11—PO3H2) which may be prepared as described in Example 2 of U.S. Pat. No. 6,824,882, the disclosure of which is hereby incorporated by reference)”
A triamcinolone stock solution (2 mM) was prepared by adding triamcinolone acetonide to ethanol. The canister was filled with 5 mL of the triamcinolone stock solution, sealed and stored at 70° C. An extract of the triamcinolone solution was taken after one day of storage and analyzed using high performance liquid chromatography to determine remaining drug content. […] An extract of the triamcinolone solution was taken after 7 days of storage and analyzed using high performance liquid chromatography to determine remaining drug content. The amount of triamcinolone acetonide remaining after 7 days was 83.0%.
An untreated stainless steel canister was filled with the medicinal formulation of Example 11. The amount of triamcinolone acetonide remaining after 1 day was 88.0%. An extract of the triamcinolone solution was taken after 7 days of storage and analyzed using high performance liquid chromatography to determine remaining drug content. The amount of triamcinolone acetonide remaining after 7 days was 18.0%.

[7] = A1-treated valve vs untreated valves, 0.02% w/w in HFA-227
[8] = A1-treated valve, 0.02% w/w in HFA-227
[9] = untreated valve, 0.02% w/w in HFA-227
[10] = A1-treated valve, 0.05% w/w and 10% w/w ethanol in HFA-227
[11] = untreated valve, 0.05% w/w and 10% w/w ethanol in HFA-227

Q: Which “% TA remaining” value ([1]; 24 h, 4 mM) does the source give for `CC(C)CCCC(C)CCCC(C)CCCC(C)CCP(=O)(O)O` (stereo not drawn) [A2, 1-phosphono-3,7,11,15-tetramethylhexadecane] here?
A: Its value is 97.4 (+/−0.1) %.

Q: Which “% TA remaining” value ([1]; 24 h, 4 mM) does the source give for `CCCCCCCCCCCCCCCCP(=O)(O)O` [A3, 1-phosphonohexadecane] here?
A: Its value is 93.2 (+/−3.6) %.

Q: Which “% TA remaining” value ([1]; 24 h, 4 mM) does the source give for `CC(C)CCCC(C)CCCC(C)CCCC(C)CCC(=O)O` (stereo not drawn) [A5, Phytanyl carboxylic acid] here?
A: The value was 71.5 (+/−3.2) %.

Q: For `CC1(C)O[C@@H]2C[C@H]3[C@@H]4C[C@H](F)C5=CC(=O)C=C[C@]5(C)[C@H]4[C@@H](O)C[C@]3(C)[C@]2(C(=O)CO)O1` [flunisolide], which “visual observation of drug deposition in metering tanks” value (from here on “visual observation of drug deposition”) [2, 7] is on record?
A: Its value is “considerably less drug deposition”.

Q: And the “amount of drug adsorbed to the valve” value [3, 8]?
A: Its value is 23 (+/−7) μg.

Q: What about the “amount of drug adsorbed to the valve” value [3, 9] of the same compound?
A: Its value is 41 (+/−7) μg.

Q: With `CCC(=O)O[C@]1(C(=O)SCF)[C@H](C)C[C@H]2[C@@H]3C[C@H](F)C4=CC(=O)C=C[C@]4(C)[C@@]3(F)[C@@H](O)C[C@@]21C` [fluticasone propionate] as the compound, how does the “average total drug content in the filled canisters, less than the target total drug content” value ([4]; A1-treated stainless steel filling system, 6 canisters) read?
A: The value was 2%.

Q: And the “average total drug content in the filled canisters, less than the target total drug content” value ([4]; untreated stainless steel filling system)?
A: Its value is 58%.

Q: What about the “amount of fluticasone propionate adsorbed to the canister” value (“amount … to the canister” below) ([5]; A1-treated aluminum canister, 0.0083% w/w in HFA-134A) of the same compound?
A: Its value is 2.4%.

Q: And the “amount … to the canister” value ([5]; A1-treated aluminum canister, 0.0083% w/w in HFA-227)?
A: The value was 9.7%.

Q: What about the “amount … to the canister” value ([5]; untreated aluminum canister, 0.0083% w/w in HFA-134A) of the same compound?
A: Its value is 23.2%.

Q: And the “amount … to the canister” value ([5]; untreated aluminum canister, 0.0083% w/w in HFA-227)?
A: Its value is 35.5%.

Q: For `CC1(C)O[C@@H]2C[C@H]3[C@@H]4CCC5=CC(=O)C=C[C@]5(C)[C@@]4(F)[C@@H](O)C[C@]3(C)[C@]2(C(=O)CO)O1` [triamcinolone acetonide], which “amount of triamcinolone acetonide remaining” value ([6]; A1-treated stainless steel canister, 70° C, 1 day) is on record?
A: The value was 94.9%.

Q: What about the “amount of triamcinolone acetonide remaining” value ([6]; A1-treated stainless steel canister, 70° C, 7 days) of the same compound?
A: The value was 83.0%.

Q: What about the “amount of triamcinolone acetonide remaining” value ([6]; untreated stainless steel canister, 1 day) of the same compound?
A: Its value is 88.0%.

Q: And the “amount of triamcinolone acetonide remaining” value ([6]; untreated stainless steel canister, 7 days)?
A: The value was 18.0%.

Q: What about the “% TA remaining” value ([1]; untreated aluminum oxide powder (C3), 4 mM triamcinolone acetonide in ethanol, 70° C, 1 day) of the same compound?
A: The value was 11.5 (+/−1.2) %.

Q: Which “visual observation of drug deposition” value ([2]; A1-treated valve vs untreated valves, 0.05% w/w in HFA-134A) does the source give for albuterol sulfate here?
A: Its value is “considerably less drug deposition”.

Q: And the “visual observation of drug deposition” value ([2]; A1-treated valve vs untreated valves, 0.05% w/w in HFA-227)?
A: Its value is “considerably less drug deposition”.

Q: What about the “visual observation of drug deposition” value [2, 10] of the same compound?
A: The value was “minimal drug deposition”.

Q: What about the “visual observation of drug deposition” value [2, 11] of the same compound?
A: Its value is “minimal drug deposition”.

Q: And the “amount of drug adsorbed to the valve” value [3, 10]?
A: Its value is 67 (+/−18) μg.

Q: What about the “amount of drug adsorbed to the valve” value ([3]; A1-treated valve, 0.05% w/w in HFA-134A, stored valve down) of the same compound?
A: Its value is 112 (+/−25) μg.

Q: And the “amount of drug adsorbed to the valve” value ([3]; A1-treated valve, 0.05% w/w in HFA-227)?
A: Its value is 134 (+/−54) μg.

Q: What about the “amount of drug adsorbed to the valve” value [3, 11] of the same compound?
A: The value was 75 (+/−9) μg.

Q: And the “amount of drug adsorbed to the valve” value ([3]; untreated valve, 0.05% w/w in HFA-134A)?
A: The value was 138 (+/−24) μg.

Q: What about the “amount of drug adsorbed to the valve” value ([3]; untreated valve, 0.05% w/w in HFA-227) of the same compound?
A: Its value is 167 (+/−28) μg.

Q: Which results are given for pirbuterol acetate?
A: visual observation of drug deposition in metering tanks [2, 7]: considerably less drug deposition; amount of drug adsorbed to the valve [3, 8]: 36 (+/−13) μg; amount of drug adsorbed to the valve [3, 9]: 43 (+/−12) μg

From patent US20090050143A1, “MEDICINAL FORMULATION CONTAINER WITH A TREATED METAL SURFACE” (priority 2006, published 2009)
